Results from US7045536B2, “Compound having anti-viral activity” (Industrial Technology Research Institute, priority 2003, dated 2006).

Columns and labels:
enterovirus type 71 = test: Neutralization test; format: cell-based, enterovirus 71/Tw/2231/98; details: concentration of 10 mg/ml; RD cells, crystal violet OD570nm
Experimental: In this embodiment, enterovirus 71/Tw/2231/98 obtained from Virology Lab of Chang Gung Memorial Hospital is diluted with fetal bovine serum free culture medium. Culture the RD cells in DMEM containing 10% fetal bovine serum. When the cells are 90% cultured, wash with 1×PBC once and add the aforesaid diluted virus fluid into the culture medium. Place the medium in the 5% CO2, 35° C. incubator for inoculation for one hour and then add DMEM containing 2% fetal bovine serum. Place the medium in 5% CO2, 35° C. incubator. When over 95% of the cells become round and drop off, collect the supernatant. After centrifuge, freezing and thawing, refrigerate the virus supernatant under −80° C.
In this embodiment, cultured cells from Embodiment 3 are cultured in 96-well plate. After mixing fixed-quantity of virus fluid with the tested compound, add in culture medium for inoculation for one hour, and then add in DMEM containing 2% fetal bovine serum. Place the medium in 5% CO2, 35° C. incubator for 3–4 days. To read the test result, add 5% formalin to fixate for 1–2 hours and dye with 0.1% crystal violet for 2–3 minutes. Rinse with water and measure OD570nm values.

RD cells = test: Toxicity test; format: cell-based; details: 3-4 days, crystal violet OD570nm
Experimental: In this embodiment, rhabdomyosarcoma (RD) cells obtained from the Virology Lab of Chang Gung Memorial Hospital are cultured in DMEM (Gibco) containing 10% fetal bovine serum and placed in 5% CO2, 37° C. incubator. In successive culture, the cells are rinsed twice with 1× PBS and then added with proper amount of 0.25% trypsin-EDTA (Gibco) for cell treatment. After the cells drop off from the surface of culture dish, add DMBM medium containing 10% fetal bovine serum to disperse the cells evenly in the culture dishes. Place the dishes into 5% CO2, 37° C. incubator to continue the culturing.
In this embodiment, cultured cells from Embodiment 3 are cultured in 96-well plate. After the cells are mixed with the tested compound for one hour, add DMEM containing 2% fetal bovine serum, and place the medium in 5% CO2, 35° C. incubator for 3–4 days. To read the test result, add 5% formalin to fixate for 1–2 hours and dye with 0.1% crystal violet (J. T. Baker) for 2–3 minutes. Rinse with water and measure OD570nm values.

SMILES: C[n+]1ccn(CC(O)Cn2cc[n+](C)c2)c1.[Br-].[Br-] [dibromo 1,1′-glyceryl-bis (3-methyl-1H-imidazole)]
- inhibitory effect on enterovirus type 71 (enterovirus type 71): 32%
- LC50 (RD cells): 8400 µg/mL

SMILES: OC(C[n+]1ccccc1)C[n+]1ccccc1.[Br-].[Br-] [dibromo 1,1′-glyceryl-bispyridine]
- inhibitory effect on enterovirus type 71 (enterovirus type 71): 30%
- LC50 (RD cells): 9200 µg/mL
